System: P. falciparum 3D7 growth, pLDH absorbance
Test: P. falciparum 3D7 growth inhibition, dose response, strain 3D7 (AID 2305)

Cc1cccc(C)c1NC1=NC(=S)N(c2cccc(Cl)c2)C12CCC(C(C)(C)C)CC2 (stereo not given) and Cc1ccccc1C1CCN(c2ccc(NC(=O)c3ccc(Cl)nc3)cc2)CC1 are within 1.5-fold of each other in IC50: 0.76 µM for the first, 1.03 µM for the second.

Going from CCn1ncc2c(N3CCCC3=O)cc(C(=O)N[C@@H](Cc3ccccc3)[C@H](O)CNC(C)(C)c3cccc(C(F)(F)F)c3)cc21 to COC(=O)c1ccc(CC(C)NCC(O)c2cccc(C(F)(F)F)c2)c(Cl)c1 (stereo not given), the IC50 rises from 0.15 µM to 0.85 µM (5.7-fold).

O=C(NCc1ccc(C(=O)NC2CCCCC2)cc1)c1ccc(O)c(-c2ccc(Cl)c(Cl)c2)c1 and O=C(NC1CCCC1)c1ccc(N2CCC(NCc3cc4cc(Cl)ccc4[nH]3)CC2)cc1 are within 1.5-fold of each other in IC50: 0.88 µM for the first, 1.22 µM for the second.

Going from CCc1sc(N2CCC(C)CC2)nc1C(=O)Nc1ccc(F)cc1C(F)(F)F to COc1cc2c(cc1C(F)(F)F)N(C(=O)Nc1cc(F)c(F)c(-c3cccnc3)c1)CC2, the IC50 falls from 1.09 µM to 0.63 µM (1.7-fold).

Going from O=C(c1cc(-c2cccs2)[nH]n1)N1CCN(S(=O)(=O)c2ccc(Br)cc2)CC1 to O=C(Nc1ccc(CN2CCN(S(=O)(=O)c3cccc(Cl)c3)CC2)cc1)c1cccs1, the IC50 rises from 0.36 µM to 1.08 µM (3-fold).

Compared with CCN(CCCN1CCCCC1)c1cc(C)nc(Nc2ccc(C)c(F)c2)n1, Cc1ccc(Nc2ccnc(Nc3ccc(C)c(F)c3)n2)cc1O is 2.8-fold higher in IC50: 0.27 µM for the first, 0.76 µM for the second.

First: CS(=O)(=O)c1cccc(-c2cnc(N)c3cc(-c4cccc(F)c4)ccc23)c1
Second: CCOC(=O)c1ccc(-c2cnc(N)c(-c3nc4c(C)cccc4[nH]3)c2)cc1
The IC50 of the first is 3.1-fold higher: 0.86 µM for the first, 0.28 µM for the second.

First: Nc1cc(C(F)(F)F)ccc1Cl
Second: COc1ccc(CC(C)NCC(O)c2cccc(C(F)(F)F)c2)cc1 (stereo not given)
The IC50 of the first is 2.1-fold lower: 0.74 µM for the first, 1.58 µM for the second.

Cc1nccn1Cc1cc(C(C)(C)C)c(O)c(C(C)(C)C)c1 and CC(C)(C)CC(C)(C)c1ccc(O)c(C(=O)Nc2cccc([N+](=O)[O-])c2)c1 are within 1.5-fold of each other in IC50: 0.79 µM for the first, 0.59 µM for the second.

First: CN(C)CCc1c[nH]c2ccc(C(=O)Nc3ccc(-c4ccncc4)cc3)cc12
Second: N#Cc1ccc(NC(=NCCc2c[nH]c3ccccc23)Nc2ccc(-c3ccccc3)cc2)c(O)c1
The IC50 of the first is 1.7-fold higher: 0.57 µM for the first, 0.34 µM for the second. The second is the more potent here.

O=C(/C=C/c1ccc(Cl)c(Cl)c1)NCCCCCN1CCC(CCNC(=O)/C=C/c2ccc(Cl)c(Cl)c2)CC1 and O=C(/C=C/c1ccc(Cl)c(Cl)c1)NCCCCCN1CCCC(CNC(=O)/C=C/c2ccccc2)C1 (stereo not given) are within 1.5-fold of each other in IC50: 0.56 µM for the first, 0.79 µM for the second.

CN(C)CCCNCc1ccc(-c2ccc(F)c(Cl)c2)o1 and O=c1cc(NCCCNCc2cccc3c2OC(F)(F)O3)[nH]c2ccccc12 are within 1.5-fold of each other in IC50: 0.8 µM for the first, 0.95 µM for the second.

Going from CCCCc1ccccc1NS(=O)(=O)c1ccc(OC)c(N2CCNCC2)c1 to COc1ccc(CCNCC(O)COc2nccc3c(S(=O)(=O)N4CCCNCC4)cccc23)cc1OC (stereo not given), the IC50 falls from 1.38 µM to 0.27 µM (5.1-fold). The second is the more potent here.

First: COc1cc2ccccc2c(OC)c1CCNCCCCNCCc1c(OC)cc2ccccc2c1OC
Second: COC(=O)c1cccc(NC(=O)NC2CCN(c3ccnc(Nc4cc(OC)c(OC)c(OC)c4)n3)C2)c1 (stereo not given)
The IC50 of the first is 1.7-fold higher: 0.89 µM for the first, 0.51 µM for the second.

O=C(CCn1cncn1)N1CCCC(c2[nH]c3ccccc3c2-c2ccncc2)C1 (stereo not given) and O=C(/C=C/c1ccc(Cl)c(Cl)c1)NCCCCCN1CC[C@H](c2c[nH]c3ccccc23)[C@H](O)C1 are within 1.5-fold of each other in IC50: 0.8 µM for the first, 0.82 µM for the second.

First: N#Cc1ccc(/C=C/C(=O)NCCCCCN2CCCN(C(=O)Nc3ccc(Cl)c(C(F)(F)F)c3)CC2)cc1
Second: O=C(/C=C/c1ccc(Cl)cc1)NCCCCCN1CCCN(C(=O)Nc2ccc(F)c(Cl)c2)CC1
The IC50 of the first is 1.8-fold lower: 0.44 µM for the first, 0.78 µM for the second. The first is the more potent here.

Compared with O=[N+]([O-])c1cccc(C(Nc2ccccn2)c2ccc3cccnc3c2O)c1 (stereo not given), Oc1cccc(Nc2nc(NCc3ccccc3)c3ccccc3n2)c1 is 33-fold lower in IC50: 1.33 µM for the first, 0.04 µM for the second. The second is the more potent here.

Compared with COc1nc2c(CCN3CCC(NCc4ccc5c(c4)NCCO5)CC3)c(Cl)cnc2cc1F, O=C(NC1CCN(CCc2c[nH]c3ccc(F)cc23)CC1)c1ncc(-c2ccccc2)[nH]1 is 4.8-fold higher in IC50: 0.18 µM for the first, 0.87 µM for the second.

COc1ccc(NC(=O)[C@H](CC(C)C)Nc2cc(C)nc(NCCc3cccs3)n2)cc1 and Cc1cccc(CNc2nc(C)cc(N[C@@H](CC(C)C)C(=O)NCCOc3ccccc3)n2)c1 are within 1.5-fold of each other in IC50: 0.96 µM for the first, 1.08 µM for the second.

CN1CCC(NCc2cccc(-c3ccc(S(=O)(=O)NCCc4ccccn4)cc3)c2)CC1 and N#Cc1ccc(-c2ccc(C(=O)NCCCCN3CCC(c4ccncc4)CC3)cc2)cc1 are within 1.5-fold of each other in IC50: 0.83 µM for the first, 0.81 µM for the second.

CN(CCC1CCN(C(=O)/C=C/c2ccc(Cl)c(Cl)c2)CC1)C1CCC(c2c[nH]c3ccccc23)CC1 (stereo not given) and O=C(/C=C/c1ccc(Cl)c(Cl)c1)N1CCC(CCN2CCC(c3c[nH]c4ccncc34)CC2)CC1 are within 1.5-fold of each other in IC50: 0.77 µM for the first, 1.14 µM for the second.

Cc1csc(-c2nc(NCCc3c(C)noc3C)ncc2-c2ccsc2)n1 and CN1CCN(Cc2nc(-c3ccc4c(Nc5ccc(F)c(O)c5)ccnc4c3)cs2)CC1 are within 1.5-fold of each other in IC50: 0.18 µM for the first, 0.17 µM for the second.

Going from O=C(/C=C/c1ccc(Cl)cc1)NCCCCCN1CCC(C(=O)Nc2ccc(Cl)c(Cl)c2)CC1 to O=C(NCCCCCN1CCC(c2c[nH]c3ccccc23)CC1)c1ccc(Cl)c(Cl)c1, the IC50 rises from 0.77 µM to 1.36 µM (1.8-fold).

Compared with CO/C(=C\C=C\c1cc2cc(Cl)c(Cl)cc2[nH]1)C(=O)NCCCCN1CCN(c2ccccc2OC)CC1, O=C(/C=C/c1cccc(OC(F)(F)F)c1)NCCCCCN1CCC(c2c[nH]c3ccccc23)CC1 is 1.9-fold higher in IC50: 0.51 µM for the first, 0.96 µM for the second.

CC1CCCCC1N(C)C1CCN(CCCNC(=O)C=Cc2cccc(C(F)(F)F)c2)CC1 (stereo not given) and O=C(C=Cc1ccc(F)cc1)NC1CCC(CCN2CCc3ccc(-c4cnccn4)cc3CC2)CC1 (stereo not given) are within 1.5-fold of each other in IC50: 0.77 µM for the first, 0.69 µM for the second.

Nc1ccc(-c2nc3ccc(Cc4ccc5nc(-c6ccc(N)cc6)[nH]c5c4)cc3[nH]2)cc1 and Cc1cccc2[nH]c(-c3ccc(-c4ccc(CN5CCCC(N)C5)cc4)cc3)nc12 (stereo not given) are within 1.5-fold of each other in IC50: 0.51 µM for the first, 0.35 µM for the second.

CCCCCn1c(Sc2ccc(C#N)c([N+](=O)[O-])c2)nnc1-c1cc(OC)cc(OC)c1 and COC(=O)c1c(C#N)c(OC)cc(O)c1CSC[C@H](Nc1nc(-c2ccc([N+](=O)[O-])cc2)cs1)C(=O)NCCN1CCCCC1 are within 1.5-fold of each other in IC50: 0.96 µM for the first, 1.06 µM for the second.

Going from CC(C)CCN1CCCN(Cc2cccc(NC(=O)c3ccc(Cl)c(Cl)c3)c2)CC1 to CN1CCN(Cc2cc3cc(NC(=O)/C=C/c4cccc(Cl)c4)ccc3s2)CC1, the IC50 falls from 1.02 µM to 0.27 µM (3.8-fold).

Going from Cc1cccc2[nH]c(-c3ccc(-c4ccc(CN5CCN(CCO)CC5)cc4)cc3)nc12 to COC(=O)c1ccc2nc(-c3cc(OC)c(O)c(C(=O)NC4CCN(Cc5ccccc5)CC4)c3)[nH]c2c1, the IC50 rises from 0.6 µM to 1.18 µM (2-fold).

COc1cc(Cc2cnc(N)nc2N)ccc1OCc1ccc(NC(C)=O)cc1 and CC(C)(CNCc1ccc(OC(F)(F)F)cc1)c1nc(-c2ccc(Cl)c(O)c2)c(-c2ccncc2)[nH]1 are within 1.5-fold of each other in IC50: 0.37 µM for the first, 0.55 µM for the second.

Cc1[nH]c(C)c(-c2ccc(/C=C/c3ccccn3)cc2)c(=O)c1Cl and O=C(Cc1ccccn1)Nc1cccc(-c2cccc(-c3nc4ccc(C(F)(F)F)cc4[nH]3)c2)c1 are within 1.5-fold of each other in IC50: 0.52 µM for the first, 0.61 µM for the second.

Going from Oc1ccc(Nc2nc(NCC3CCCO3)c3ccccc3n2)cc1 (stereo not given) to CCn1c2c(c(=N)c3ccccc31)CCC2, the IC50 falls from 0.81 µM to 0.5 µM (1.6-fold). The second is the more potent here.

First: CC(C)c1ccc(-c2noc(SCC(=O)N(C)c3ccc(F)cc3)n2)cc1
Second: Cc1ccc(NC(=O)c2ccc(NCCCN3CC(C)CC(C)C3)c([N+](=O)[O-])c2)cc1F (stereo not given)
The IC50 of the first is 1.6-fold higher: 1.17 µM for the first, 0.71 µM for the second. The second is the more potent here.

CN1CCN(c2ccc(Nc3nccc(-c4c(-c5cccc(NC(=O)c6c(F)cccc6F)c5)nn5ccccc45)n3)cc2)CC1 and Clc1ccc2c(N3CCN(CCN4CCN(c5ccnc6cc(Cl)ccc56)CC4)CC3)ccnc2c1 are within 1.5-fold of each other in IC50: 0.11 µM for the first, 0.13 µM for the second.

NS(=O)(=O)c1cccc(Br)c1 and CCCCC#Cc1cnc2nc(N)[nH]c(=O)c2n1 are within 1.5-fold of each other in IC50: 0.89 µM for the first, 0.65 µM for the second.
